{"source": "patent US20250082752A1", "about": "“COMPOUNDS, TARGETS, AND METHODS FOR MODULATING LYTIC GRANULE CONVERGENCE IN CYTOTOXIC CELLS TO PROMOTE BYSTANDER KILLING IN CELLULAR THERAPIES” (THE TRUSTEES OF COLUMBIA UNIVERSITY IN THE CITY OF NEW YORK, priority 2022, published 2025)", "key": {"[1]": {"system": "YTS cells", "test": "Golgi fragmentation and granule dispersion in LPA-stimulated YTS cells", "type": "cell-based", "conditions": "20 μM LPA for two hours, sodium salt", "procedure": "One way to induce the Golgi outpost formation through elongation and fission, is using LPA, which is predicted to activate a pathway dependent on transforming protein RhoA and effectively induce the formation of Golgi Outpost. […] The cells were also tested for Cr-51 (FIG. 14C). […] This dispersion was thus increased in quantity and spread on the GCC2 KO cells."}, "[2]": {"system": "YTS cells", "test": "CD107a degranulation of treated YTS cells after conjugation with 721.221 target cells", "type": "cell-based", "conditions": "5 days, Centrinone 5 nM or CFI400495 50 nM", "procedure": "CD107a (also known as LAMP-1) is the standard to measure the process of degranulation. The more CD107a is expressed on the surface of the cell after stimulation, the more granules have been released. This is limited to the immunological synapse, in part secondary to the convergence process. CD107a upregulation is measured via flow cytometry after PMA/lonomycin activation and can be measured following target cell conjugation. […] The latter requires synapse formation and engagement of receptors for downstream activation signaling. Differences in results between these two approaches (target cell conjugation versus PMA/lonomycin) map the candidate's impact to early (synapse formation and signaling) or late (mechanics of) degranulation.\n(§1) Centrinone and CFI400495 are high affinity and selective PLK4 inhibitors that induce depletion of the centrosome and cell cycle arrest. YTS cells were treated for 5 days with Centrinone 5 nM or CFI400495 50 nM. […] For this experiment, 5×10^5 cells/ml YTS cells were incubated during 5 days Centrinone 5 nM or CFI400495 50 nM, every 24 hours the media were replaced with fresh media containing similar amounts of the drug. On day 5, cells were assessed by microscopy for gamma-tubulin or alpha-tubulin."}, "[3]": {"system": "YTS cells", "test": "Number of MTOC (alpha-tubulin hyper densities) in YTS cells treated with PLK4 inhibitors", "type": "cell-based", "conditions": "5 days, Centrinone 5 nM or CFI400495 50 nM", "procedure": "as §1"}, "[4]": {"system": "YTS cells", "test": "Confocal microscopy of granule dispersion in YTS cells after Centrinone or CFI400495", "type": "cell-based", "conditions": "YTS cells after treatment with Centrinone or CFI400495", "procedure": "as §1"}, "[5]": {"system": "NK cell", "conditions": "previous work, cited from earlier work"}, "[6]": {"system": "NK cell", "test": "Durability/reversibility of deconvergence after the inhibitor is removed from media", "type": "cell-based", "conditions": "NK cell activation on activating glass surface at different times after removal from media", "procedure": "(§2) YTS cells were treated with DMSO or one of three different dynein inhibitors (Ciliobrevin-D, Dynapyrazole-A, or Compound 3016) and then incubated on an activating glass surface for 30 min. Cells were fixed, stained for a-tubulin, F-actin, perforin, and DNA (DAPI), and imaged via spinning disc confocal microscopy. Examples of individual cells (top) showing all stains and a broader field (bottom) at lower magnification showing only perforin to give an impression of the degree of granule convergence in a field of cells (FIG. 10A). […] Points show mean+SD of 3 independent experiments measuring >20 cells each.\nReversibility time for convergence is determined by activating small molecule inhibitor pre-treated NK cells on anti-NKp30/anti-CD18-coated or anti-CD28/anti-CD18 glass surfaces in the absence of the compound of interest. In short-term live-cell experiments, cells are labeled with lysotracker and fluorescent protein-conjugated tubulin; for longer term experiments, the more durable lytic granule label, LAMP1-mApple, is used. The efficiency of non-directional degranulation will be measured with the previously disclosed LAMP1-pHluorin cell line, which marks the lytic granule pH change that accompanies degranulation. […]"}, "[7]": {"system": "YTS cells", "test": "Lytic granule convergence/dispersion in dynein inhibitor-treated YTS cells on an activating glass surface (confocal microscopy)", "type": "cell-based", "conditions": "dynein inhibitor vs DMSO, activating glass surface 30 min", "procedure": "as §2\nThis work served as proof-of-concept that influencing positional degranulation can be used to harness the NK cell lytic machinery.\nTo identify the best candidates to control lytic granule positioning, a high throughput screen (HTS) for activation-induced lytic granule convergence was developed. This is a novel method that utilizes a simple shape-based approach (a grid based on the a-tubulin defined NK cell footprint and Euclidean distance from the MTOC) to generate an estimated mean granule distance (eMGD) from the MTOC (FIGS. 11A-11C). This approach allows us to quickly screen large numbers of molecular candidates. MGD will be measured in 3D in fixed NK cells activated on an anti-NKp30/anti-CD18 or anti-CD28/anti-CD18 coated glass surface over a range of activation times, conditions, and NK cell types. Cells will be stained to identify the MTOC (for example, pericentrin) and lytic granules (mature perforin). The measured MGD is an indicator of convergence."}, "[8]": {"system": "NK cells", "test": "Lytic granule dispersion in pretreated NK cells seeded on surfaces coated with activating antibodies", "type": "cell-based", "conditions": "NK cells pretreated at 5 μM for 30 min", "excerpt": "FIGS. 59B-59E are magnified image of marked areas in FIG. 59A focusing on cells with dispersed granule. Perforin staining is shown in green, and alpha-tubulin is staining is shown in red.\nFIGS. 60B-60E are magnified image of marked areas in FIG. 60A focusing on cells with dispersed granule. The position of the granules is indicated by perforin staining.\nFIGS. 61B-61E are magnified image of marked areas in FIG. 61A focusing on cells with dispersed granule. The position of the granules is indicated by perforin staining.\nNK cells were pretreated with N-{1-[(4-chlorophenyl)methyl]piperidin-4-yl}prop-2-enamide (FIG. 56) at […] for 30 min. The treated NK cells were seeded onto surfaces coated with activating antibodies.\nNK cells were pretreated with 1-(prop-2-enamido)-N-[(thiophen-2-yl)methyl]cyclohexane-1-carboxamide (FIG. 57) at 5 μM for 30 min. The treated NK cells were seeded onto surfaces coated with activating antibodies.\nNK cells were pretreated 1-[3-(4-fluorophenyl) prop-2-enoyl]-4-hydroxypyrrolidine-2-carboxylic acid (FIG. 58) at 5 μM for 30 min. The treated NK cells were seeded onto surfaces coated with activating antibodies."}, "[9]": {"system": "YTS cells", "test": "Mean granule distance (MGD) and automated estimated MGD (eMGD) from the MTOC in activated YTS cells", "type": "cell-based", "conditions": "YTS cells activated on glass via CD18/CD28 for 30 minutes, p<0.01", "excerpt": "FIGS. 11A-11H depict exemplary results related to mean granule distance (MGD) and automated estimated mean granule distance (eMGD). FIG. 11A depicts an exemplary high-resolution confocal imaging of lytic granules (labeled by perforin) and tubulin, which allows for automated intensity threshold-based identification of granules as shown in FIG. 11B (outlines indicate for granules and the microtubule-organizing center (MTOC)). FIG. 11C depicts the equation for calculating […] using x and y coordinates of each granule relative to the MTOC. […] FIG. 11E is an exemplary image of a fixed NK cell from the screen (labeled with perforin and tubulin) to which the Euclidean method for assessing granule localization relative to a total cell, tubulin-defined footprint of FIG. 11F can be applied. eMGD is then calculated using a Matlab script and the formula shown in FIG. 11G. […]\nTo identify the best candidates to control lytic granule positioning, a high throughput screen (HTS) for activation-induced lytic granule convergence was developed. […] MGD will be measured in 3D in fixed NK cells activated on an anti-NKp30/anti-CD18 or anti-CD28/anti-CD18 coated glass surface over a range of activation times, conditions, and NK cell types. […] The measured MGD is an indicator of convergence. […]"}, "[10]": {"system": "bystander K562 cells", "test": "Bystander killing by Dynapyrazole A-pretreated YTS cells", "type": "cell-based", "conditions": "YTS cells pretreated with 5 μM for 30 minutes", "excerpt": "The graph is representative of three independently performed biological repeats.\nTo assess tumor cell and bystander killing, TheCOS comprises NK cell lines, tumor cell targets, and NK-resistant tumor cell bystanders. LAMP1-mApple-pHluorin-expressing NK cell lines enable visualization of granules (mApple) and degranulation events (pHluorin transition). mTurquoise2 mark susceptible tumor cells, and Citrine mark bystander cells. SYTOX deep red is included in the hydrogel to identify the nuclei of dying cells. A cell positive for Turquoise and SYTOX fluorescence denote a dying tumor cell, whereas a cell positive for Citrine and SYTOX indicate a dying bystander cell. 1×10^5 target tumor cells and 1×10^5 NK cells (for an initial 1:1 tumor to effector ratio)+/−1×10^6 bystander cells are deposited into separate thermally responsive hydrogel layers and then encased in thermally stable hydrogel. This sandwich is then deposited the into our imaging chamber. Prewarmed media is added to collapse the hydrogel layers.\n(§3) YTS cells are treated with 5 μM of Dynapyrazole A for 30 minutes, then washed twice with culture media. Then cells are stimulated either with 721.221 target cells, K562 target cells, or with an activating surface (coverslip coated with anti CD18 and/or anti CD28)."}, "[11]": {"system": "YTS cells", "test": "Granule distance to MTOC in Dynapyrazole A-treated YTS cells on a CD28/CD18 activating surface", "type": "cell-based", "conditions": "5 μM for 30 minutes, washed", "procedure": "as §3"}}, "note": "“Also recorded” adds a separate entry of the source.", "data": [{"compound": "1-Oleoyl lysophosphatidic acid sodium salt [LPA]", "values": [{"measurement": "Golgi fragmentation", "setting": "[1]", "result": "increase in Golgi fragments; also recorded: Golgi fragmentation"}, {"measurement": "granule dispersion / convergence", "setting": "[1]", "result": "blocks convergence; also recorded: granule dispersion"}]}, {"compound": "COc1ccc2c(c1)[C@]1(C[C@H]1c1ccc3c(/C=C/c4ccc(CN5C[C@@H](C)O[C@@H](C)C5)cc4)n[nH]c3c1)C(=O)N2.O=C(O)/C=C/C(=O)O", "note": "[CFI400495, Spiro[cyclopropane-1,3′-[3H]indol]-2′(1′H)-one, 2-[3-[(E)-2-[4-[[(2R,6S)-2,6-dimethyl-4-morpholinyl]methyl]phenyl]ethenyl]-1H-indazol-6-yl]-5′-methoxy-, (1R,2S)-, (2E)-2-butenedioate (1:1)]", "values": [{"measurement": "degranulation (CD107a expression)", "setting": "[2]", "result": "increases degranulation"}, {"measurement": "number of MTOC (alpha Tubulin hyper densities)", "setting": "[3]", "result": "increase number of mTOC"}, {"measurement": "granule dispersion (confocal microscopy images)", "setting": "[4]", "result": "more disperse granules"}]}, {"compound": "N#CC(C(=O)c1ccc(Cl)cc1Cl)=C1NC(=O)c2ccc(Cl)cc2N1", "note": "[Ciliobrevin D, 2-(7-chloro-4-oxo-3,4-dihydroquinazolin-2 (1H)-ylidene)-3-(2,4-dichlorophenyl)-3-oxopropanenitrile]", "values": [{"measurement": "killing of bystander cells", "setting": "[5]; UGATm and other single cell assays", "result": "promoted killing of bystander cells"}, {"measurement": "inhibition of lytic granule convergence (previously used)", "setting": "[5]", "result": "inhibit lytic granule convergence"}, {"measurement": "durability of deconvergence after inhibitor removed from media", "setting": "[6]", "result": "Neither inhibitor, however, promotes sustained deconvergence"}, {"measurement": "durability of deconvergence after inhibitor removed from media", "setting": "[6]; listed as CIL-D", "result": "quickly reversible"}, {"measurement": "lytic granule convergence / dispersion", "setting": "[7]", "result": "lytic granule dispersion"}, {"measurement": "lytic granule convergence / dispersion", "setting": "[7]; listed as CIL-D", "result": "highly effective in preventing lytic granule convergence"}]}, {"compound": "O=C(O)C1CC(O)CN1C(=O)C=Cc1ccc(F)cc1", "note": "(stereo not shown) [Compound 3977, 1-[3-(4-fluorophenyl)prop-2-enoyl]-4-hydroxypyrrolidine-2-carboxylic acid]", "values": [{"measurement": "lytic granule dispersion", "setting": "[8]", "result": "induce lytic granule dispersion; also recorded: lytic granule dispersion induced"}]}, {"compound": "C=CC(=O)NC1CCN(Cc2ccc(Cl)cc2)CC1", "note": "[Compound 5814, N-{1-[(4-chlorophenyl)methyl]piperidin-4-yl}prop-2-enamide]", "values": [{"measurement": "lytic granule dispersion", "setting": "[8]", "result": "induce lytic granule dispersion; also recorded: lytic granule dispersion induced"}]}, {"compound": "C=CC(=O)NC1(C(=O)NCc2cccs2)CCCCC1", "note": "[Compound 7779, 1-(prop-2-enamido)-N-[(thiophen-2-yl)methyl]cyclohexane-1-carboxamide]", "values": [{"measurement": "lytic granule dispersion", "setting": "[8]", "result": "induce lytic granule dispersion; also recorded: lytic granule dispersion induced"}]}, {"compound": "N#Cc1c(C2(c3ccc(Cl)cc3)CC2)nn2c1[nH]c(=O)c1cc(I)ccc12", "note": "[Dynapyrazole A, 2-[1-(4-Chlorophenyl)cyclopropyl]-4,5-dihydro-7-iodo-5-oxopyrazolo[1,5-a]quinazoline-3-carbonitrile]", "values": [{"measurement": "estimated mean granule distance (eMGD), change vs DMSO", "setting": "[9]; GE InCell Analyzer", "result": "Increase"}, {"measurement": "mean granule distance (MGD), change vs DMSO", "setting": "[9]; confocal microscope", "result": "Increase"}, {"measurement": "killing of bystander K562 cells", "setting": "[10]", "result": "kill bystander K562 cells"}, {"measurement": "killing of bystander K562 cells", "setting": "[10]; listed as Dynapyrazole-A", "result": "kill bystander K652 cells"}, {"measurement": "lytic granule convergence / dispersion", "setting": "[7]; listed as Dynapyrazole-A", "result": "lytic granule dispersion"}, {"measurement": "lytic granule convergence / dispersion", "setting": "[7]; listed as dynapyrazole-A", "result": "highly effective in preventing lytic granule convergence"}, {"measurement": "lytic granule dispersion (granule distance to MTOC)", "setting": "[11]", "result": "induces lytic granule dispersion"}, {"measurement": "lytic granule dispersion (granule distance to MTOC)", "setting": "[11]; listed as Dynapyrazole-A", "result": "high lytic granule dispersion"}]}]}
